This note sets out measurements from patent US20230072421A1, “TARGETED RADIOPHARMACEUTICALS FOR THE DIAGNOSIS AND TREATMENT OF PROSTATE CANCER” (Bayer AS, priority 2019, published 2023).

Each structure is given as a SMILES string.

The assay has as its target T1, PSMA-expressing LNCaP cells (Homo sapiens, UniProt Q04609).
T1 construct: PSMA-expressing LNCaP cells; endogenous in cells; host or cells: LNCaP
Briefly: Binding competition assay against 3H-PSMA-617 on LNCaP cells. Particulars: for remaining activity at 0.01 µM / remaining activity at 0.1 µM: LNCaP cells, 10 nM 3H-PSMA-617, 2 h at 37° C., triplicates; for remaining activity at 0.01 µM: competing non-radiolabeled compound 10 nM; for remaining activity at 0.1 µM: competing non-radiolabeled compound 100 nM; for competition against 3H-PSMA-617 on PSMA-expressing LNCaP cells (in words): comparison between examples. As for the experimental part:
Cells were incubated at 37° C. and 5% CO2 over night. […] After addition of the compounds in growth media the cells were swiveled slightly on a shaker mixing for 10 min followed by incubation for 2 h at 37° C., 5% C02. Following the incubation time the supernatant was removed by pipetting and cells were washed twice with ice cold PBS (total of 800 μl). Cells were lysed in 500 μl of 0.3M NaOH (PanReac AppliChem ITW Reagents) by vigorous shaking for 15 min and the cell lysated pipetted into scintillator tubes (S207-[…]® Scintillation Vials 6.5 ml #S207, Simport). In the following the wells were washed with 500 μl PBS and the washing PBS added to the corresponding samples in the sincitallator tubes. To each sample in the scintillator tubes 4 mL of Ultima Gold liquid scintillation cocktail (Sigma-Aldrich #L8286) was added and the samples let stand for at least 30 min. Thereafter radioactivity was counted in a Tri-Carb Liquid Scinzillation Analyzer (Perkin Elmer).

T1 sequence (Q04609 whole entry): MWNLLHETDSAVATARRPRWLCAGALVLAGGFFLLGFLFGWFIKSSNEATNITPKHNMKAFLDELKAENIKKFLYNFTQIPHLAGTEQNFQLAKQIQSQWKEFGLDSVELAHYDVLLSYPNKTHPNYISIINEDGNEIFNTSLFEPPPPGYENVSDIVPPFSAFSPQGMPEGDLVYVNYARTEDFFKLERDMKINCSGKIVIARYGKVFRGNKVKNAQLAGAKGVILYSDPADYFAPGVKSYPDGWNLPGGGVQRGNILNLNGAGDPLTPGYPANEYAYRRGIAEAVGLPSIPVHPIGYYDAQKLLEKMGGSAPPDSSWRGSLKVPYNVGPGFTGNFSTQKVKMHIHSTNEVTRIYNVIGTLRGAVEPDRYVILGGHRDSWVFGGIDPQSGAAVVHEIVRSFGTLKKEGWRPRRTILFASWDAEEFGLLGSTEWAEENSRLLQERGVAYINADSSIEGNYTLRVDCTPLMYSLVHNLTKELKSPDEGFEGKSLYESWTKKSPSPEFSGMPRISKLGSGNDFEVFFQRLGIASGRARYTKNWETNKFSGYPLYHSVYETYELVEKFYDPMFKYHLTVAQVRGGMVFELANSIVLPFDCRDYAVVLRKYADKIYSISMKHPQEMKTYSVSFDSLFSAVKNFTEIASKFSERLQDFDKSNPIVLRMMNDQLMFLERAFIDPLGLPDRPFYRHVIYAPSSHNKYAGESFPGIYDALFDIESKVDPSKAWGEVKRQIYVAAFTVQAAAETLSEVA

`NC[C@H]1CC[C@H](C(=O)N[C@@H](Cc2ccc(C3CCC3)cc2)C(=O)NCCCC[C@H](NC(=O)N[C@@H](CCC(=O)O)C(=O)O)C(=O)O)CC1` [Example 18-A, N^6—{N-[(1r,4S)-4-(aminomethyl)cyclohexane-1-carbonyl]-4-cyclobutyl-L-phenylalanyl}-N^2-{[(1S)-1,3-dicarboxypropyl]carbamoyl}-L-lysine]: the remaining activity at 0.01 µM is 78% and the remaining activity at 0.1 µM was determined as 79%.
Take `COc1ccc(CC(NC(=O)[C@H]2CC[C@H](CN)CC2)C(=O)NCCCC[C@H](NC(=O)N[C@@H](CCC(=O)O)C(=O)O)C(=O)O)cc1OC` (stereo partly drawn) [Example 19-A, N^6—{N-[(1r,4S)-4-(aminomethyl)cyclohexane-1-carbonyl]-3-methoxy-O-methyl-L-tyrosyl}-N^2-{[(1S)-1,3-dicarboxypropyl]carbamoyl}-L-lysine]: the remaining activity at 0.01 µM came out at 84% and the remaining activity at 0.1 µM stood at 79%.
For `NC[C@H]1CC[C@H](C(=O)N[C@@H](CCCNC(=O)c2cnccn2)C(=O)NCCCC[C@H](NC(=O)N[C@@H](CCC(=O)O)C(=O)O)C(=O)O)CC1` [Example 20-A, N^6—{N^2-[(1r,4S)-4-(aminomethyl)cyclohexane-1-carbonyl]-N^5-(pyrazine-2-carbonyl)-L-ornithyl}-N^2-{[(1S)-1,3-dicarboxypropyl]carbamoyl}-L-lysine] the same measures were 88% and 82%.
For `NC[C@H]1CC[C@H](C(=O)N(Cc2cccc(=O)[nH]2)[C@@H](Cc2ccc3ccccc3c2)C(=O)NCCCC[C@H](NC(=O)N[C@@H](CCC(=O)O)C(=O)O)C(=O)O)CC1` [Example 21-A, (3S,10S,14S)-1-[(1r,4S)-4-(aminomethyl)cyclohexyl]-3-[(naphthalen-2-yl)methyl]-1,4,12-trioxo-2-[(6-oxo-1,6-dihydropyridin-2-yl)methyl]-2,5,11,13-tetraazahexadecane-10,14,16-tricarboxylic acid], the remaining activity at 0.01 µM worked out at 70% and the remaining activity at 0.1 µM amounted to 58%.
Consider `NC[C@H]1CC[C@H](C(=O)N[C@@H](Cc2cnc3ccccc3c2)C(=O)NCCCC[C@H](NC(=O)N[C@@H](CCC(=O)O)C(=O)O)C(=O)O)CC1` [Example 22-A, N^6—{N-[(1r,4S)-4-(aminomethyl)cyclohexane-1-carbonyl]-3-(quinolin-3-yl)-L-alanyl}-N^2-{[(1S)-1,3-dicarboxypropyl]carbamoyl}-L-lysine], for which the remaining activity at 0.01 µM is 113% and the remaining activity at 0.1 µM came to 40%.
Regarding `Nc1ccc(CC(=O)N[C@@H](Cc2ccc3ccccc3c2)C(=O)NCCCC[C@H](NC(=O)N[C@@H](CCC(=O)O)C(=O)O)C(=O)O)cc1` [Example 23-A, (4S,11S,15S)-1-(4-aminophenyl)-4-[(naphthalen-2-yl)methyl]-2,5,13-trioxo-3,6,12,14-tetraazaheptadecane-11,15,17-tricarboxylic acid], the remaining activity at 0.01 µM turned out to be 59% and the remaining activity at 0.1 µM is 26%.
As for `O=C(O)CC[C@H](NC(=O)N[C@@H](CCCCNC(=O)[C@H](Cc1ccc2ccccc2c1)NC(=O)Cc1ccc(NC(=O)CN2CCN(CC(=O)O)CCN(CC(=O)O)CCN(CC(=O)O)CC2)cc1)C(=O)O)C(=O)O` [Example 23-B, (4S,11S,15S)-4-[(naphthalen-2-yl)methyl]-2,5,13-trioxo-1-(4-{2-[4,7,10-tris(carboxymethyl)-1,4,7,10-tetraazacyclododecan-1-yl]acetamido}phenyl)-3,6,12,14-tetraazaheptadecane-11,15,17-tricarboxylic acid], the remaining activity at 0.01 µM was 66% and the remaining activity at 0.1 µM was determined as 18%.
As to `NCc1ccc(C(=O)N[C@@H](Cc2ccc3ccccc3c2)C(=O)NCCCC[C@H](NC(=O)N[C@@H](CCC(=O)O)C(=O)O)C(=O)O)cc1` [Example 24-A, (3S,10S,14S)-1-[4-(aminomethyl)phenyl]-3-[(naphthalen-2-yl)methyl]-1,4,12-trioxo-2,5,11,13-tetraazahexadecane-10,14,16-tricarboxylic acid], the remaining activity at 0.01 µM was 66% and the remaining activity at 0.1 µM amounted to 16%.
Regarding `O=C(O)CC[C@H](NC(=O)N[C@@H](CCCCNC(=O)[C@H](Cc1ccc2ccccc2c1)NC(=O)c1ccc(CNC(=O)CN2CCN(CC(=O)O)CCN(CC(=O)O)CCN(CC(=O)O)CC2)cc1)C(=O)O)C(=O)O` [Example 24-B, (3S,10S,14S)-3-[(naphthalen-2-yl)methyl]-1,4,12-trioxo-1-[4-({2-[4,7,10-tris(carboxymethyl)-1,4,7,10-tetraazacyclododecan-1-yl]acetamido}methyl)phenyl]-2,5,11,13-tetraazahexadecane-10,14,16-tricarboxylic acid], the remaining activity at 0.01 µM stood at 59% and the remaining activity at 0.1 µM came to 6%.
As for `NCc1ccc(C(=O)N[C@@H](Cc2ccc3ccccc3c2)C(=O)NCCCC[C@H](NC(=O)N[C@@H](CCC(=O)O)C(=O)O)C(=O)O)nc1` [Example 25-A, (3S,10S,14S)-1-[5-(aminomethyl)pyridin-2-yl]-3-[(naphthalen-2-yl)methyl]-1,4,12-trioxo-2,5,11,13-tetraazahexadecane-10,14,16-tricarboxylic acid], the remaining activity at 0.01 µM came out at 93%; the remaining activity at 0.1 µM turned out to be 21%; the “competition against 3H-PSMA-617 on PSMA-expressing LNCaP cells (in words)” value (“competition” below) was “improved competition in comparison to the cyclohexyl examples 1-A and 1-B”.
As to `NCc1ccc(C(=O)N[C@@H](Cc2ccc3ccccc3c2)C(=O)NCCCC[C@H](NC(=O)N[C@H](CCC(=O)O)C(=O)O)C(=O)O)nc1` [Example 25-A-D, (3S,10S,14R)-1-[5-(aminomethyl)pyridin-2-yl]-3-[(naphthalen-2-yl)methyl]-1,4,12-trioxo-2,5,11,13-tetraazahexadecane-10,14,16-tricarboxylic acid], the remaining activity at 0.01 µM is 79% and the remaining activity at 0.1 µM was 67%.
As to `O=C(O)CC[C@H](NC(=O)N[C@@H](CCCCNC(=O)[C@H](Cc1ccc2ccccc2c1)NC(=O)c1ccc(CNC(=O)CN2CCN(CC(=O)O)CCN(CC(=O)O)CCN(CC(=O)O)CC2)cn1)C(=O)O)C(=O)O` [Example 25-B, (3S,10S,14S)-3-[(naphthalen-2-yl)methyl]-1,4,12-trioxo-1-[5-({2-[4,7,10-tris(carboxymethyl)-1,4,7,10-tetraazacyclododecan-1-yl]acetamido}methyl)pyridin-2-yl]-2,5,11,13-tetraazahexadecane-10,14,16-tricarboxylic acid], the remaining activity at 0.01 µM is 54%; the remaining activity at 0.1 µM worked out at 5%; the “competition” value is “improved competition in comparison to the cyclohexyl examples 1-A and 1-B”.
Consider `NCc1ccc(C(=O)N[C@@H](Cc2ccc3ccccc3c2)C(=O)NCCCC[C@H](NC(=O)N[C@@H](CCC(=O)O)C(=O)O)C(=O)O)cn1` [Example 26-A, (3S,10S,14S)-1-[6-(aminomethyl)pyridin-3-yl]-3-[(naphthalen-2-yl)methyl]-1,4,12-trioxo-2,5,11,13-tetraazahexadecane-10,14,16-tricarboxylic acid], for which the remaining activity at 0.01 µM came out at 33%; the remaining activity at 0.1 µM came to 6%; the “competition” value was “improved competition in comparison to the cyclohexyl examples 1-A and 1-B”.
For `O=C(O)CC[C@H](NC(=O)N[C@@H](CCCCNC(=O)[C@H](Cc1ccc2ccccc2c1)NC(=O)c1ccc(CNC(=O)CN2CCN(CC(=O)O)CCN(CC(=O)O)CCN(CC(=O)O)CC2)nc1)C(=O)O)C(=O)O` [Example 26-B, (3S,10S,14S)-3-[(naphthalen-2-yl)methyl]-1,4,12-trioxo-1-[6-({2-[4,7,10-tris(carboxymethyl)-1,4,7,10-tetraazacyclododecan-1-yl]acetamido}methyl)pyridin-3-yl]-2,5,11,13-tetraazahexadecane-10,14,16-tricarboxylic acid], the remaining activity at 0.01 µM worked out at 53%; the remaining activity at 0.1 µM was 6%; the “competition” value was “improved competition in comparison to the cyclohexyl examples 1-A and 1-B”.
For `NCc1cccc(C(=O)N[C@@H](Cc2ccc3ccccc3c2)C(=O)NCCCC[C@H](NC(=O)N[C@@H](CCC(=O)O)C(=O)O)C(=O)O)c1` [Example 27-A, (3S,10S,14S)-1-[3-(aminomethyl)phenyl]-3-[(naphthalen-2-yl)methyl]-1,4,12-trioxo-2,5,11,13-tetraazahexadecane-10,14,16-tricarboxylic acid], the remaining activity at 0.01 µM amounted to 27% and the remaining activity at 0.1 µM came out at 7%.
For `O=C(O)CC[C@H](NC(=O)N[C@@H](CCCCNC(=O)[C@H](Cc1ccc2ccccc2c1)NC(=O)c1cccc(CNC(=O)CN2CCN(CC(=O)O)CCN(CC(=O)O)CCN(CC(=O)O)CC2)c1)C(=O)O)C(=O)O` [Example 27-B, (3S,10S,14S)-3-[(naphthalen-2-yl)methyl]-1,4,12-trioxo-1-[3-({2-[4,7,10-tris(carboxymethyl)-1,4,7,10-tetraazacyclododecan-1-yl]acetamido}methyl)phenyl]-2,5,11,13-tetraazahexadecane-10,14,16-tricarboxylic acid] the same measures were 54% and 6%.
